Reference: article PMC8302598, “Rapid discovery of self-assembling peptides with one-bead one-compound peptide library” (Nature Communications, 2021)

Assays:
[1] = TEM morphology and size of peptide nano-assemblies over time; format: physicochemical; settings: for Initial nanostructure (TEM): DMSO stock 5 mM diluted 100X with water, 50 μM (legend: 40 μM), 1% DMSO, fixed immediately (0 h); for Nanoparticle size by TEM, 0 h / Nanoparticle size by TEM, 4 h: H2O with 1% DMSO, 40 μM / 50 μM
Excerpt: Self-assembling peptides with good biocompatibility may be used to construct nanocarriers for drug delivery. We recently reported the use of FFVLK, the reverse sequence of KLVFF, as a self-aggregating β-sheet forming domain for the delivery of HER2 targeting peptides for successful treatment of breast cancer in xenograft models. Such FFVLK containing peptide is able to self-assemble into nanoparticles. Upon intravenous administration, the FFVLK-nanoparticle was able to transform into nanofibrillar network when encountering HER2 at the tumor sites. To investigate the morphology of the nano-assembly formed by the eight self-assembling peptides, we dissolved each of these peptides in DMSO (5 mM) and then diluted them 100X with water at a final peptide concentration of 50 μM to induce spontaneous self-assembly. Each sample was fixed immediately after peptide solution preparation and at 4 h time point for subsequent TEM processing and analysis. As clearly shown in Fig. 4a, all eight self-assembling peptides initially formed some nanostructures: nanoparticles for ITSVV, YFTEF, ISDNL, LDFPI, FAGFT, FGFDP, and FTISD; nanofibers for FFVDF. […] LDFPI (8 nm) maintained the particulate morphology without changing of diameter in 4 h. FFVDF formed nanofibers at 0 and 4 h. […] Time-dependent size variations of pentapeptides in water were further confirmed by DLS spectra (Supplementary Fig. 18). The initial diameters of nanoparticles formed by seven pentapeptides were larger than that observed by TEM, probably due to hydration radius. The size of the nanostructure increased over time, correlating well with the morphologic transformation. […] Circular dichroism (CD) was used to monitor the secondary structures of the nano-assembly of the eight self-assembling peptides over time (Supplementary Fig. 20).
Pentapeptides monomers were dissolved in DMSO at a concentration of 5.0 mM, followed by quick injection into water at a volume ratio of 1:99 for DMSO and H2O to obtain the nanomaterials solution (50 μM). For 30 mM pentapeptide solution, the pentapeptide was dissolved in water and sonicated for 3 min.
The pentapeptide solution with the concentration of 20 μM (10 μL) was placed dropwise onto a copper mesh for 5 min, then most of the liquid was removed through a filter paper. Ten microliters of uranyl acetate solution were employed to stain the samples for 5 min, followed by drying the spare liquid with the filter. Finally, the copper mesh was washed with 10 μL of deionized water, which was blotted after staining and drying at room temperature. All of the samples were observed by TEM (Tecnai G2 20 S-TWIN) at an accelerating voltage of 200 kV.

[2] = Self-assembly of resynthesized soluble pentapeptides; format: physicochemical; settings: self-assembly under aqueous environment
Excerpt: Once the screening method has been validated with our model KLVFF peptide, a totally random pentapeptide library with 19[5] permutations (cysteine was omitted from the library) was constructed using our previously published methods (Supplementary Fig. 3)[23]. Again, TentaGel S resin (loading of 0.31 mmol/g) was used as the solid support. The pentapeptides in the library were N-terminally capped with NBD. […] The positive bead with an intense fluorescent signal (pointed with a solid arrow) was noted. The rest of the beads were considered negative or weak positive beads. From a total of approximately 100 000 beads screened, we selected a total of eight strongest fluorescent positive beads and four dark beads as negative beads. The peptides were then resynthesized in soluble form and purified by high-performance liquid chromatography (HPLC) for testing (Supplementary Figs. 4–12). The amino acid sequences of the eight self-assembling pentapeptides are FTISD, ITSVV, YFTEF, ISDNL, LDFPI, FAGFT, FGFDP, and FFVDF. Not unexpectedly, of the 40 amino acids in these eight pentapeptides, 50% are hydrophobic residues, predominated by Phe (11 Phe, 4 Ile, 3 Val, and 2 Leu). For the remaining 20 amino acids, six are acidic residues (5 Asp and 1 Glu) and seven are neutral and hydrophilic (4 Thr and 3 Ser). The rest are 2 Pro, 2 Gly, 1 Tyr, 1 Asn, and 1 Ala. All eight peptides have at least two hydrophobic residues. Six out of the eight peptides have one negatively charged residue (Asp or Glu). The remaining two peptides are neutral. […] For the Pro containing pentapeptides, LDFPI and FGFDP, the Pro residue, which promotes peptide turns, resides at the fourth and fifth positions, but not in the middle. Not unexpectedly, all the four randomly selected negative non-assembling peptides (RITTR, PLVKA, PFTTR, and QIMRW) have very different sequences, and contain at least one positive charged amino acid.
To estimate the propensity of the identified peptides to self-assemble, the critical micelle concentrations (CMC) of the eight positive peptides and four negative peptides were determined, and the results are shown in Table 1 and Supplementary Figs. 13, 14. The CMC of all the eight positive peptides were detectable and found to range between 8.4 and 14.8 μM, indicating the propensity for these peptides to self-assemble under aqueous environment. […] Hydrophobicity of peptides can be predicted by the value of GRAVY[28] with more negative value for more hydrophilic peptides. Of the four negative assembling peptides, two have a negative GRAVY value. […] Experimental testing, such as the screening strategy described in this work, is needed. This is because multiple factors, including hydrophobicity, hydrogen-bonding, electrostatic interactions, and positions of each residue within the peptides, all contribute to the assembling and final morphology of the self-assembled nano-structure. […]

Substance | Initial nanostructure (TEM) [1] | Nanoparticle size by TEM, 0 h [1] | Nanoparticle size by TEM, 4 h [1] | Assembly [2]
LDFPI [self-assembling pentapeptide identified from OBOC library] | nanoparticles | 8 nm | 8 nm | Yes
FAGFT [self-assembling pentapeptide identified from OBOC library] | nanoparticles | 10 nm | 15 nm | Yes
ITSVV [self-assembling pentapeptide identified from OBOC library] | nanoparticles | – | ~ 300 nm | Yes
FTISD [self-assembling pentapeptide identified from OBOC library] | nanoparticles | – | – | Yes
YFTEF [self-assembling pentapeptide identified from OBOC library] | nanoparticles | 41 nm | 75 nm | Yes
ISDNL [self-assembling pentapeptide identified from OBOC library] | nanoparticles | – | – | Yes
FFVDF [self-assembling pentapeptide identified from OBOC library, forms nanofibers] | nanofibers | – | – | Yes
FGFDP [self-assembling pentapeptide identified from OBOC library] | nanoparticles | – | – | Yes
